One assay concerns the target CDK4 (Homo sapiens (Human), UniProt P11802). Briefly: CDK4 protein kinase activity, Caliper mobility shift assay. Type of assay: biochemical. The note with it: GST-CDK4(1-303 end), substrate Peptide FAM-P8, 28° C. for 3 h. The procedure: (§1) activity assay: The CDK4 protein kinase activity was measured using the Caliper mobility shift assay (see J. Biomol. Screen, 2009, PP31). The test compound was dissolved in DMSO and diluted with a kinase buffer solution (20 mM HEPES-pH 7.5, 0.01% Triton X-100, 10 mM MgCl2, 2 mM DTT) and 5 μL of compound at 5-fold final concentration of reaction dissolved in 10% DMSO was added in a 384-well plate. The compound-free control well was 5 μL of 10% DMSO, and the no-activity control well was 5 μL of kinase buffer. 10 μL of a 2.5-fold diluted CDK4 enzyme solution (GST-CDK4(1-303 end)) was added and incubated at room temperature for 10 min, and then 10 μL of the 2.5-fold diluted substrate solution Peptide FAM-P8 was added. The reaction was stopped by adding 25 μL of stop solution after incubation at 28° C. for 3 h, and the conversion rate data was read on a Caliper EZ Reader II (Caliper Life Sciences) and the conversion rate was converted to inhibition rate data according to above method. Among them, the inhibition rate %=(max−conversion)/(max−min)×100%.

The next assay deals with CDK6 (Homo sapiens (Human), UniProt Q00534). Briefly: CDK6 protein kinase activity, Caliper mobility shift assay. Type of assay: biochemical. The note with it: GST-CDK6(1-326 end), substrate Peptide FAM-P8, 28° C. for 3 h. The procedure: as §1, with “Activity Assay:” for “activity assay:”, “CDK6” for “CDK4”, “(GST-CDK6(1-326” for “(GST-CDK4(1-303”

Bounds are passed on as bounds.

Sequence of CDK4 (P11802 whole entry): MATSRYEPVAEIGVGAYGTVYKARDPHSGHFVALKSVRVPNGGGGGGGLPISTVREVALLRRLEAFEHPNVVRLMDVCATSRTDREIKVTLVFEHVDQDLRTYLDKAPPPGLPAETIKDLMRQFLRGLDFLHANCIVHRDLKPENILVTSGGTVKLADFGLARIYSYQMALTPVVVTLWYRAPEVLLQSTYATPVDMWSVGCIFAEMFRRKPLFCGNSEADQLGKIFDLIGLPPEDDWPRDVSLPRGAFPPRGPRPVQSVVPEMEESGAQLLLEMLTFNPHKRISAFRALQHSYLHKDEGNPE
Sequence of CDK4 (P30281 whole entry partner): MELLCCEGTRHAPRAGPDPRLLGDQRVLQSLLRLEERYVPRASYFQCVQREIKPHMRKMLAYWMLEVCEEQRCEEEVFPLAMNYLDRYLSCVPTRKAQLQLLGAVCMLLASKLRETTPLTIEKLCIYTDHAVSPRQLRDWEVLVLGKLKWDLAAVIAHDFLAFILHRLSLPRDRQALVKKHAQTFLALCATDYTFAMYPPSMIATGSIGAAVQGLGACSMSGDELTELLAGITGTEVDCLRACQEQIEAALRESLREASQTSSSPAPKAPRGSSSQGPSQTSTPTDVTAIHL
Sequence of CDK6 (Q00534 whole entry): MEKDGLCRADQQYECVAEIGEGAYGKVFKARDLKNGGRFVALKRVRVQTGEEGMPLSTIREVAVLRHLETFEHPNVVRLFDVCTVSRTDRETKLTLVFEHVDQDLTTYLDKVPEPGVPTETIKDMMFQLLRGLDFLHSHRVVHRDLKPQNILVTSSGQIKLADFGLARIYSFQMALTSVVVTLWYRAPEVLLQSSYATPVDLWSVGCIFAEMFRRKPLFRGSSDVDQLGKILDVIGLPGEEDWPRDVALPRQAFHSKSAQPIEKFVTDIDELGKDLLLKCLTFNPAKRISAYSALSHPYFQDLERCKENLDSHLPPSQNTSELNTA
Sequence of CDK6 (P30281 whole entry partner): as the sequence (P30281 whole entry partner) above

As a reminder, the IC50 is the concentration at which inhibition is half-maximal. Turning to `CCN1CCN(Cc2ccc(Nc3ncc(F)c(-c4ncnc5c4cc(C(C)=O)n5C4CC4)n3)nc2)CC1` [Compound I-41, N-(5-(4-ethylpiperazine-1-methyl)-pyridin-2-yl)-5-fluoro-4-(6-acetyl-7-cyclopropyl-7H-pyrrolo[2,3-d]pyrimidin-4-yl)pyrimidin-2-amine], the IC50 on CDK4 and at CDK6 was not above 20 nM each time.
Turning to `CC(=O)c1cc2cc(-c3nc(Nc4ccc(N5CCNCC5)cn4)ncc3F)ccc2n1C(C)C` [Compound I-23, N-(5-(piperazin-1-yl)-pyridin-2-yl)-5-fluoro-4-(1-isopropyl-2-acetyl-1H-indol-5-yl)pyrimidin-2-amine], the IC50 on CDK4 and on CDK6 was not above 20 nM each time.
For the molecule `CCN1CCN(Cc2ccc(Nc3ncc(F)c(-c4ncnc5c4cc(C)n5C4CCCC4)n3)nc2)CC1` [Compound I-11, N-(5-(4-ethylpiperazine-1-methyl)-pyridin-2-yl)-5-fluoro-4-(6-methyl-7-cyclopentyl-7H-pyrrolo[2,3-d]pyrimidin-4-yl)pyrimidin-2-amine], the IC50 on CDK4 was not above 20 nM; at CDK6 it was 100 to 500 nM.
In the same order, the values of `CCN1CCN(Cc2ccc(Nc3ncc(F)c(-c4ccc5c(cc(C(=O)N(C)C)n5C(C)C)c4F)n3)nc2)CC1` [Compound I-27, N-(5-(4-ethylpiperazine-1-methyl)-pyridin-2-yl)-5-fluoro-4-(1-isopropyl-2-formic acid diformamido-1H-4-fluoroindol-5-yl)pyrimidin-2-amine] are not above 20 nM and not above 20 nM.
On to `CCN1CCN(c2ccc(Nc3ncc(F)c(-c4ncc5nc(C)n(C(C)C)c5n4)n3)nc2)CC1` [Compound I-48, N-(5-(4-ethylpiperazin-1-yl)-pyridin-2-yl)-5-fluoro-4-(9-isopropyl-8-methyl-9H-purin-2-yl)pyrimidin-2-amine], for which the 50% inhibitory concentration (IC50) on CDK4 is not above 20 nM; on CDK6 it was 100 to 500 nM.
In the same order, the values of `CN(C)C(=O)c1cc2cc(-c3nc(Nc4ccc(N5CCNCC5)cn4)ncc3F)ccc2n1C1CCCC1` [Compound I-14, N-(5-(piperazin-1-yl)-pyridin-2-yl)-5-fluoro-4-(1-cyclopentyl-2-formic acid diformamido-1H-indol-5-yl)pyrimidin-2-amine] are not above 20 nM and not above 20 nM.
In the same order, the values of `CCN1CCN(Cc2ccc(Nc3ncc(F)c(-c4ccc5c(c4)cc(C(=O)N(C)C)n5C4CCCC4)n3)nc2)CC1` [Compound I-22, N-(5-(4-ethylpiperazine-1-methyl)-pyridin-2-yl)-5-fluoro-4-(1-cyclopentyl-2-formic acid diformamido-1H-indol-5-yl)pyrimidin-2-amine] are not above 20 nM and not above 20 nM.
In the same order, the values of `CCN1CCN(Cc2ccc(Nc3ncc(F)c(-c4ccc5c(c4)c(C(C)=O)nn5C(C)C)n3)nc2)CC1` [Compound I-44, N-(5-(4-ethylpiperazine-1-methyl)-pyridin-2-yl)-5-fluoro-4-(1-isopropyl-3-acetyl-1H-indazol-5-yl)pyrimidin-2-amine] are not above 20 nM and more than 500 nM.
On to `CC(=O)c1nc(C2CC2)n2cc(-c3nc(Nc4ccc(N5CCNCC5)cn4)ncc3F)cc(F)c12` [Compound I-32, N-(5-(piperazin-1-yl)-pyridin-2-yl)-5-fluoro-4-(1-acetyl-3-cyclopropyl-8-fluoro-imidazolo[1,5-a]pyridin-6-yl)pyrimidin-2-amine], for which the results for the IC50 at CDK4 and on CDK6 were not above 20 nM and 20 to 100 nM, respectively.
Turning to `CN(C)C(=O)c1c2ccc(-c3nc(Nc4ccc(N5CCNCC5)cn4)ncc3F)c(F)c2nn1C` [Compound I-31, N-(5-(piperazin-1-yl)-pyridin-2-yl)-5-fluoro-4-(2-methyl-3-formic acid diformamido-2H-7-fluoro-indazol-6-yl)pyrimidin-2-amine], the IC50 at CDK4 and on CDK6 was not above 20 nM each time.
